Among the data in patent publication US20260083704A1, “LXR MODULATORS WITH BICYCLIC CORE MOIETY FOR TREATING DYSLIPIDEMIAS” (OrsoBio, Inc., priority 2022, published 2026) are EC50 values, retold here.

The structures appear in SMILES notation. A value given as a limit tells only on which side of the number the result lay.

The target in test [1] is T1, GST-LXRβ ligand-binding domain (Homo sapiens, UniProt P55055).
T1 construct: amino acids 156-461; NP009052; made in house; host or cells: E. coli
T1 sequence (P55055 156-460 limits assumed): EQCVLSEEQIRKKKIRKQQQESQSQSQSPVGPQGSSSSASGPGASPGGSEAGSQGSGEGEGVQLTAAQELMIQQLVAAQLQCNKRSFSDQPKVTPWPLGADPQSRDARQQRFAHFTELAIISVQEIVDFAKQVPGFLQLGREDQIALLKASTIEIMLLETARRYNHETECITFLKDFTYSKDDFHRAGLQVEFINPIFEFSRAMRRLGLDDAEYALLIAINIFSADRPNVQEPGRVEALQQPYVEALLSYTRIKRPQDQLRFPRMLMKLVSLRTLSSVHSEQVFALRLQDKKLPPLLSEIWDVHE
Kind of test: TR-FRETβ activity assay (NCoA3 coactivator peptide recruitment). As to conditions: 1 μM 24(S)-25-epoxycholesterol prestimulation. It is filed as biochemical. The procedure, abridged: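 E. coli-expressed GST-LXRβ LBD (aa 156-461, 76 nM) with biotinylated NCoA3 peptide (400 nM) in Tris/HCl pH 6.8 containing 1 μM 24(S)-25-epoxycholesterol agonist. Compounds tested at 50 μM down to 0.002 μM in triplicate. TR-FRET (Tb cryptate/XL665, ex 340, em 615/665 nm) read after 1 h at 4° C.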

Test [2] has as its target T2, LXRβ (Homo sapiens, UniProt P55055).
T2 sequence (P55055 1-460): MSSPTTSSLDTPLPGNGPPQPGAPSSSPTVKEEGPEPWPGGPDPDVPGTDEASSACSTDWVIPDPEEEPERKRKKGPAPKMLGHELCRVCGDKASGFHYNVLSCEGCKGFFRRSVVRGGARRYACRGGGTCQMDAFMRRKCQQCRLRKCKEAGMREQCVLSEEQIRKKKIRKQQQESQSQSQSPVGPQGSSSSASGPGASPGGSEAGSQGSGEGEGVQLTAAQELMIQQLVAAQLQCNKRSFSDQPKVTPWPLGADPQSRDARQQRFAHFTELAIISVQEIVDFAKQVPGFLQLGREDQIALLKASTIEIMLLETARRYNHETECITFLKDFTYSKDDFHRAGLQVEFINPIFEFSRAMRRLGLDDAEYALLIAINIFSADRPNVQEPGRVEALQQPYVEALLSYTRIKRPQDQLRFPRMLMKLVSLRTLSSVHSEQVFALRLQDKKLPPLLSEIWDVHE
The experiment in a line: LXR Gal4 reporter transient transfection assay (mammalian two-hybrid, HEK293), LXRβ. More on the design: LXRβ (amino acids 156-461); expressed in transfected cells; host or cells: HEK293. The conditions noted are these: full length (FL) LXRβ, HEK293; read-out: FL-M2H Gal4β. It is filed as cell-based. A digest of the protocol: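 HEK293 cells transiently co-transfected with full-length or LBD LXRα/LXRβ fused to NFkB activation domain, GAL4-DBD-fused SRC1 or NCoR cofactor domain, GAL4-responsive firefly luciferase reporter and Renilla control. Compound added 4 h post-transfection (≤0.2% DMSO), incubated 16 h; firefly and Renilla luminescence read sequentially.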

In the case of `N#Cc1cccc(C#N)c1-c1c(-c2cccc(-c3ccc(C(=O)O)cc3Cl)c2)n(S(=O)(=O)C2CCC(F)(F)CC2)c2ccc(F)cc12` [11/63], the EC50 was 100 to 1000 nM in test [1] and less than 100 nM in test [2].
The corresponding values for `N#Cc1sccc1-c1c(-c2cccc(-c3ccc(C(=O)O)cc3Cl)c2)n(S(=O)(=O)c2ccc(C(F)(F)F)nc2)c2ccc(F)cc12` [11/16] are 100 to 1000 nM and less than 100 nM.
`Cc1ccc(S(=O)(=O)n2c(-c3cccc(-c4ccc(C(=O)O)cc4)c3)c(-c3ccsc3C#N)c3cc(F)ccc32)cc1` [5/3]: the values for the EC50 in test [1] and in test [2] were 100 to 1000 nM and less than 100 nM, respectively.
Turning to `Cc1ccc(S(=O)(=O)n2c(-c3cccc(-c4ccc(C(=O)O)cc4)c3)c(-c3ccsc3C#N)c3cc(F)ccc32)cc1C` [23/2], the EC50 in test [1] was 100 to 1000 nM; in test [2], less than 100 nM.
In the same order, the values of `O=C(O)c1ccc(-c2cccc(-c3c(-c4c(Cl)cccc4Cl)c4cc(F)ccc4n3S(=O)(=O)c3ccc(C(F)F)cc3)c2)c(Cl)c1` [11/13] are less than 100 nM and less than 100 nM.
In the same order, the values of `O=C(O)c1ccc(-c2cccc(-c3c(-c4ccccc4C4COC4)c4cc(F)ccc4n3S(=O)(=O)c3ccc(C(F)F)cc3)c2)c(Cl)c1` [3/59] are less than 100 nM and less than 100 nM.
Turning to `N#Cc1cccc(C#N)c1-c1c(-c2cccc(-c3ccc(C(=O)O)cc3Cl)c2)n(S(=O)(=O)c2ccc(C(F)F)cc2)c2ccc(F)cc12` [11/12], the EC50 in test [1] and in test [2] was less than 100 nM each time.
For `CS(=O)(=O)NC(=O)c1ccc(-c2cccc(-c3c(-c4c(C#N)cccc4C#N)c4cc(F)ccc4n3S(=O)(=O)c3ccc(C(F)F)cc3)c2)c(Cl)c1` [32/5], the EC50 in test [1] and in test [2] was less than 100 nM in each case.
Consider `N#Cc1cccc(C#N)c1-c1c(-c2cccc(-c3ccc(C(=O)NCCS(=O)(=O)O)cc3Cl)c2)n(S(=O)(=O)c2ccc(C(F)F)cc2)c2ccc(F)cc12` [10/1], for which the EC50 in test [1] and in test [2] was less than 100 nM each time.
Regarding `N#Cc1cccc(C#N)c1-c1c(-c2cccc(-c3c(F)cc(CC(=O)O)cc3F)c2)n(S(=O)(=O)c2ccc(C(F)F)cc2)c2ccc(F)cc12` [3/73], the EC50 in test [1] and in test [2] was less than 100 nM throughout.
With `N#Cc1ccccc1-c1c(-c2cccc(-c3ccc(C(=O)O)cc3Cl)c2)n(S(=O)(=O)c2ccc(C(F)F)cc2)c2cnccc12` [11/49], the EC50 in test [1] and in test [2] was less than 100 nM throughout.
As for `CC(=O)NS(=O)(=O)c1ccc(-c2cccc(-c3c(-c4c(C#N)cccc4C#N)c4cc(F)ccc4n3S(=O)(=O)c3ccc(C(F)F)cc3)c2)c(Cl)c1` [8/8], the EC50 in test [1] and in test [2] was less than 100 nM throughout.
Regarding `O=C(O)c1ccc(-c2cccc(-c3c(-c4ncccc4C(F)(F)F)c4cc(F)ccc4n3S(=O)(=O)c3ccc(C(F)F)cc3)c2)c(Cl)c1` [11/23], the EC50 in test [1] and in test [2] was less than 100 nM throughout.
`COc1c(C(=O)O)ccc(-c2cccc(-c3c(-c4ccccc4C#N)c4cc(F)ccc4n3S(=O)(=O)c3ccc(C(F)F)cc3)c2)c1Cl` [11/27]: the EC50 in test [1] and in test [2] was less than 100 nM throughout.
As to `N#Cc1sccc1-c1c(-c2cccc(-c3ccc(C(=O)O)cc3Cl)c2)n(S(=O)(=O)c2ccc(C(F)F)cc2)c2ccc(F)cc12` [11/17], the EC50 in test [1] and in test [2] was less than 100 nM each time.
`N#Cc1cccc(C#N)c1-c1c(-c2cccc(-c3ccc(C(=O)O)cc3F)c2)n(S(=O)(=O)c2ccc(C(F)F)cc2)c2ccc(F)cc12` [11/51]: the EC50 in test [1] and in test [2] was less than 100 nM each time.
Regarding `N#Cc1nccnc1-c1c(-c2cccc(-c3cc(F)c(C(=O)O)cc3Cl)c2)n(S(=O)(=O)c2ccc(C(F)F)cc2)c2ccc(F)cc12` [11/11], the EC50 in test [1] and in test [2] was less than 100 nM each time.
On to `N#Cc1cccc(C#N)c1-c1c(-c2cccc([C@H]3CC[C@H](C(=O)O)CC3)c2)n(S(=O)(=O)c2ccc(C(F)F)cc2)c2ccc(F)cc12` [11/62], for which the EC50 in test [1] was 100 to 1000 nM; in test [2], less than 100 nM.
The corresponding values for `Cc1ccc(S(=O)(=O)n2c(-c3cccc(C45CCC(C(=O)O)(CC4)CC5)c3)c(-c3ccsc3C#N)c3cc(F)ccc32)cc1` [3/64] are 100 to 1000 nM and less than 100 nM.
The corresponding values for `N#Cc1ccccc1-c1c(-c2cccc(-c3ccc(C(=O)O)cc3Cl)c2)n(S(=O)(=O)c2ccc(C(F)F)cc2)c2ccc(F)cc12` [11/33] are less than 100 nM and less than 100 nM.
In the same order, the values of `N#Cc1cccc(C#N)c1-c1c(-c2cccc(-c3cc(F)c(C(=O)O)cc3Cl)c2)n(S(=O)(=O)c2ccc(C(F)F)cc2)c2ccc(F)cc12` [11/65] are less than 100 nM and less than 100 nM.
On to `N#Cc1cccc(C#N)c1-c1c(-c2cccc(-c3ccc(C(=O)O)cc3Cl)c2)n(S(=O)(=O)c2ccc(C(F)(F)F)nc2)c2ccc(F)cc12` [11/37], for which the EC50 in test [1] and in test [2] was less than 100 nM each time.
In the case of `N#Cc1cccnc1-c1c(-c2cccc(-c3ccc(C(=O)O)cc3Cl)c2)n(S(=O)(=O)c2ccc(C(F)F)cc2)c2ccc(F)cc12` [11/26], the EC50 in test [1] and in test [2] was less than 100 nM in each case.
As for `N#Cc1cccc(C#N)c1-c1c(-c2cccc(-c3c(F)cc(C(=O)O)cc3F)c2)n(S(=O)(=O)c2ccc(C(F)F)cc2)c2ccc(F)cc12` [11/53], the EC50 in test [1] and in test [2] was less than 100 nM throughout.
For the molecule `Cc1ccc(S(=O)(=O)n2c(-c3cccc(-c4ccc(C(=O)O)cc4Cl)c3)c(-c3ccsc3C#N)c3cc(F)ccc32)cc1` [3/48], the figures for the EC50 in test [1] and in test [2] were 100 to 1000 nM and less than 100 nM, respectively.
Consider `N#Cc1cccc(C#N)c1-c1c(-c2cccc(-c3ccc(C(=O)NCC(=O)O)cc3Cl)c2)n(S(=O)(=O)c2ccc(C(F)F)cc2)c2ccc(F)cc12` [Compound 21/3], for which the EC50 in test [1] and in test [2] was less than 100 nM each time.
For `CN(CCS(=O)(=O)O)C(=O)c1ccc(-c2cccc(-c3c(-c4c(C#N)cccc4C#N)c4cc(F)ccc4n3S(=O)(=O)c3ccc(C(F)F)cc3)c2)c(Cl)c1` [10/2], the EC50 in test [1] and in test [2] was less than 100 nM in each case.
